In paper PMC9500072, “Topical application of an irreversible small molecule inhibitor of lysyl oxidases ameliorates skin scarring and fibrosis” (Nature Communications, 2022):
Where “and” joins values, the source holds several entries; their conditions need not be identical. Equal entries are not always repeated.

Tests used:
DAO = biological target: T1, DAO (Homo sapiens, UniProt P19801); test: Compound oxidation by DAO; type: biochemical
T1 sequence (P19801 20-751): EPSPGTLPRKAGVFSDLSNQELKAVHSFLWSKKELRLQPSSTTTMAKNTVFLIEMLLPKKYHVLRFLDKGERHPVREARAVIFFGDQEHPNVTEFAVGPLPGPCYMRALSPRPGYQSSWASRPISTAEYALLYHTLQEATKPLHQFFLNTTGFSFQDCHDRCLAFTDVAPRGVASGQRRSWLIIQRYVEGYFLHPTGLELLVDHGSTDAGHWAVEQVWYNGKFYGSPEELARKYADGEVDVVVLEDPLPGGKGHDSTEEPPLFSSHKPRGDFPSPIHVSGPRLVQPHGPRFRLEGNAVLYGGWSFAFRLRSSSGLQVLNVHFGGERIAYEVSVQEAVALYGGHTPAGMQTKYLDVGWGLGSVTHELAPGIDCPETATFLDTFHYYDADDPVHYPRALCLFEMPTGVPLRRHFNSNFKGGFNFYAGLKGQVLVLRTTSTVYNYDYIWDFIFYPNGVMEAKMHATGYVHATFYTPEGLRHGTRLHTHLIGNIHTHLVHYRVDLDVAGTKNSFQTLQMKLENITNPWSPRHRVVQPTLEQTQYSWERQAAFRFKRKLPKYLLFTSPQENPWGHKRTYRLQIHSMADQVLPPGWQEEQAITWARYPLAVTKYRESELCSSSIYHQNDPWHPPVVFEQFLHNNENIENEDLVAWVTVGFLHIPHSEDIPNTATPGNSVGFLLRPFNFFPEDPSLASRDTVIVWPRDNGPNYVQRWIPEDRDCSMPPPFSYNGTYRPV

[1] = test system: full-thickness excision injury scar; test: Porcine excision injury model; type: in vivo, pigs
[2] = LeadProfilingScreen, Eurofins CEREP Panlabs, 68 assays; type: binding; conditions: test concentration 10 µM
Adenosine A2A = Adenosine A2A (Homo sapiens, UniProt P29274); test: Eurofins panel 200610; type: binding
Adrenergic α1A = Adrenergic α1A (Rattus norvegicus, UniProt P43140); test: Eurofins panel 203100; type: binding
Chain of Adrenergic α1A (P43140 whole entry): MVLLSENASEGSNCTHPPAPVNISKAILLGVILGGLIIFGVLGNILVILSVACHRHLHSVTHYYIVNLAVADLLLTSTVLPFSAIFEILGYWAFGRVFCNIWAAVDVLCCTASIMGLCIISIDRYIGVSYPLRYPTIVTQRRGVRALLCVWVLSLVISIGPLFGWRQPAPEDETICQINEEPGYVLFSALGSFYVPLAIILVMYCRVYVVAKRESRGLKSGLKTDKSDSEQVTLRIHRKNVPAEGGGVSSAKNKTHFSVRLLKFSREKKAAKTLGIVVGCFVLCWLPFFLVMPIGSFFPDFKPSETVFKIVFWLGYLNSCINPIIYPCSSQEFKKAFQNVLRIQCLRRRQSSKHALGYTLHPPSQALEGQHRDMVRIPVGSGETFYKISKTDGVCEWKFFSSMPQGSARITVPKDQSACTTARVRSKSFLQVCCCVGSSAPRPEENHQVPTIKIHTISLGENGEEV

Adrenergic α2A = Adrenergic α2A (Homo sapiens, UniProt P08913); test: Eurofins panel 203630; type: binding
Adrenergic β1 = Adrenergic β1 (Homo sapiens, UniProt P08588); test: Eurofins panel 204010; type: binding
Chain of Adrenergic β1 (P08588 whole entry): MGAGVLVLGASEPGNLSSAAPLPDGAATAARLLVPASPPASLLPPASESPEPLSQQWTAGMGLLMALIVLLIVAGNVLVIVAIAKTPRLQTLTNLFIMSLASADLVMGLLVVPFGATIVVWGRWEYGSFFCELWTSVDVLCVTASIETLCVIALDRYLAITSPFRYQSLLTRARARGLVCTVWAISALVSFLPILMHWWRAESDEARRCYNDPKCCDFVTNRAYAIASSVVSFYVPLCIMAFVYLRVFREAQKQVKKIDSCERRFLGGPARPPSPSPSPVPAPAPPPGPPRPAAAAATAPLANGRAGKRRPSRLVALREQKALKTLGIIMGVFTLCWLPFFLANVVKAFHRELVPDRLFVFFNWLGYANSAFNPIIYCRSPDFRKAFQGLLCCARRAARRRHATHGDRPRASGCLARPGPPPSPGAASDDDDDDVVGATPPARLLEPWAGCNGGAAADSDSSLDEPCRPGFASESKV

Adrenergic β2 = Adrenergic β2 (Homo sapiens, UniProt P07550); test: Eurofins panel 204110; type: binding
Chain of Adrenergic β2 (P07550 whole entry): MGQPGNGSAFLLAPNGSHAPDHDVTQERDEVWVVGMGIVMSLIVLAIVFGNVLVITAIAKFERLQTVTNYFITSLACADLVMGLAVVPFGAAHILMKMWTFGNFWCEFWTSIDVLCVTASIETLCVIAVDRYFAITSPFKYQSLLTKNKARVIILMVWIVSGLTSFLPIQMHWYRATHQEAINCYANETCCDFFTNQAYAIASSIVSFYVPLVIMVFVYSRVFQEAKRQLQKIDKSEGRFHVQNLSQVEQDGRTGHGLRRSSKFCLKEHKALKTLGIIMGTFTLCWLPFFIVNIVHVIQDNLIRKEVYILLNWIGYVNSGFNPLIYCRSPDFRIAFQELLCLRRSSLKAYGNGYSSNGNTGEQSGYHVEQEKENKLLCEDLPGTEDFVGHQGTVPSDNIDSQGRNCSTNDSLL

Cannabinoid CB1 = Cannabinoid CB1 (Homo sapiens, UniProt P21554); test: Eurofins panel 217030; type: binding
Chain of Cannabinoid CB1 (P21554 whole entry): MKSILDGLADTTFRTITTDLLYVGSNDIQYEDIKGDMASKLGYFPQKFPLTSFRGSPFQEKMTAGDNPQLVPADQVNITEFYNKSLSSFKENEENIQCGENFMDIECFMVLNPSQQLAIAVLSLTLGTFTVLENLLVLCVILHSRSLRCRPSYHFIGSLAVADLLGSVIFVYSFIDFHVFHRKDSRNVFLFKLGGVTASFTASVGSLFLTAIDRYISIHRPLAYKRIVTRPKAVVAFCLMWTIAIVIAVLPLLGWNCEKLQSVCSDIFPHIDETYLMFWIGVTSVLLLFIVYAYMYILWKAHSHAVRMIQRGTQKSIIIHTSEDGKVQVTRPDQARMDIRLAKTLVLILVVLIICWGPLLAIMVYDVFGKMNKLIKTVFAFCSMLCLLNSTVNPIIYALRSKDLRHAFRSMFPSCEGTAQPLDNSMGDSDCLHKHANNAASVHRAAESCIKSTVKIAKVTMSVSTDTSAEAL

Endothelin ETA = Endothelin ETA (Homo sapiens, UniProt P25101); test: Eurofins panel 224010; type: binding
Chain of Endothelin ETA (P25101 21-427): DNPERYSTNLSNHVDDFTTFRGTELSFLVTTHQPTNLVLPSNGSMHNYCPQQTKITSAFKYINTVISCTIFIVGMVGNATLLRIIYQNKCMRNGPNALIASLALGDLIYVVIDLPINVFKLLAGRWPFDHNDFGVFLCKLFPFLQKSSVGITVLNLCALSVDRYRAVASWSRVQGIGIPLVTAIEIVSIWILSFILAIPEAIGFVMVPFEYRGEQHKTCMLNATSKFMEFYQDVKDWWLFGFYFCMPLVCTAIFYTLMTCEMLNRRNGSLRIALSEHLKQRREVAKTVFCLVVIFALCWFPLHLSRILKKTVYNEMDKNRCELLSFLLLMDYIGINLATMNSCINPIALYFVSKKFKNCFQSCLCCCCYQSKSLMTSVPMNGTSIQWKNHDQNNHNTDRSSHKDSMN

Glutamate, Kainate = test: Eurofins panel 232700; type: binding, rat; conditions: 10 µM
Glutamate, NMDA, Agonism = test: Eurofins panel 232810; type: binding, rat
Histamine H1 = Histamine H1 (Homo sapiens, UniProt P35367); test: Eurofins panel 239610; type: binding
Chain of Histamine H1 (P35367 whole entry): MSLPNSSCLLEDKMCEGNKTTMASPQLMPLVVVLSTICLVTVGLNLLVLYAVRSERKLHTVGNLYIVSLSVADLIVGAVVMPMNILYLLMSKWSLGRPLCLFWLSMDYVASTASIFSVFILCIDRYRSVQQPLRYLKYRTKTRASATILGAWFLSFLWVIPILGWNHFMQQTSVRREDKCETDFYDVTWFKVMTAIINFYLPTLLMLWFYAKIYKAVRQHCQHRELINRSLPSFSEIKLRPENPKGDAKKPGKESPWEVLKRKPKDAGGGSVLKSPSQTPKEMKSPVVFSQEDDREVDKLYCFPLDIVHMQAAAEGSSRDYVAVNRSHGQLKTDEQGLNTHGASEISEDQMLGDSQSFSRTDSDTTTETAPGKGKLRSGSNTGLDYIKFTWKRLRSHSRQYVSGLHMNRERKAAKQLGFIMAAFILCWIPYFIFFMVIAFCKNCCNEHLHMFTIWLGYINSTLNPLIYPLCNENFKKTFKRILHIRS

Imidazoline I2, Central = test: Eurofins panel 241000; type: binding, rat; conditions: 10 µM
Melatonin MT1 = Melatonin MT1 (Homo sapiens, UniProt P48039); test: Eurofins panel 251600; type: binding
Muscarinic M3 = Muscarinic M3 (Homo sapiens, UniProt P20309); test: Eurofins panel 252810; type: binding
Chain of Muscarinic M3 (P20309 whole entry): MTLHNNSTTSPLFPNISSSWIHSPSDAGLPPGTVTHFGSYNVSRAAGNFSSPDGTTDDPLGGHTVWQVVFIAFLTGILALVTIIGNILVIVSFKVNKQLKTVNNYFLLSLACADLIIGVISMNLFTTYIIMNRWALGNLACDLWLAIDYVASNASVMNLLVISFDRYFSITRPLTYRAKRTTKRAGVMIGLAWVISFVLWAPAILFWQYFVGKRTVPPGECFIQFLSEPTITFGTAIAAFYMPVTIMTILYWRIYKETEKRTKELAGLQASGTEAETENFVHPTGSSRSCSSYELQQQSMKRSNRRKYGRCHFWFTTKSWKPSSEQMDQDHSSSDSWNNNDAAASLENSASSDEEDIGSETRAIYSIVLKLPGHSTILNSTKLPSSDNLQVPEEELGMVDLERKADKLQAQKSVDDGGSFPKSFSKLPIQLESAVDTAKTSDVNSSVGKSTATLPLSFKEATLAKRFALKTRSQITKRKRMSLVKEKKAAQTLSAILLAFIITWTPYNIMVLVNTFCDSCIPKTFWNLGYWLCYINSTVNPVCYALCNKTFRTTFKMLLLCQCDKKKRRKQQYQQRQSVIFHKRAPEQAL

Opiate µ(OP3, MOP) = Opiate µ(OP3, MOP) (Homo sapiens, UniProt P35372); test: Eurofins panel 260410; type: binding
Chain of Opiate µ(OP3, MOP) (P35372 whole entry): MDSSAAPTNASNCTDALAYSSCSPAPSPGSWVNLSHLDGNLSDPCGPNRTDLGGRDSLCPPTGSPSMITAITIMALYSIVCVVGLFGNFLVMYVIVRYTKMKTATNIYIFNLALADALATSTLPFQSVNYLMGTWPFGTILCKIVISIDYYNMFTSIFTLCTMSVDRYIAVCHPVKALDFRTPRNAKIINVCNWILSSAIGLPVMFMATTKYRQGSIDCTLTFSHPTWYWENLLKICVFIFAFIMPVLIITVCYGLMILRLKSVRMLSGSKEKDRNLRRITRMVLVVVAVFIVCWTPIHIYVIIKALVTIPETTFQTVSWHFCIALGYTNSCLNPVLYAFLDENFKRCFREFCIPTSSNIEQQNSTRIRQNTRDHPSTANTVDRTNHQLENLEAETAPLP

Purinergic P2X = test: Eurofins panel 268700; type: binding, rabbit; conditions: 10 µM
[3] = biological target: Serotonin (5-Hydroxytryptamine) 5-HT2B (Homo sapiens, UniProt P41595); test: Eurofins panel 271700; type: binding
Chain of Serotonin (5-Hydroxytryptamine) 5-HT2B (P41595 whole entry): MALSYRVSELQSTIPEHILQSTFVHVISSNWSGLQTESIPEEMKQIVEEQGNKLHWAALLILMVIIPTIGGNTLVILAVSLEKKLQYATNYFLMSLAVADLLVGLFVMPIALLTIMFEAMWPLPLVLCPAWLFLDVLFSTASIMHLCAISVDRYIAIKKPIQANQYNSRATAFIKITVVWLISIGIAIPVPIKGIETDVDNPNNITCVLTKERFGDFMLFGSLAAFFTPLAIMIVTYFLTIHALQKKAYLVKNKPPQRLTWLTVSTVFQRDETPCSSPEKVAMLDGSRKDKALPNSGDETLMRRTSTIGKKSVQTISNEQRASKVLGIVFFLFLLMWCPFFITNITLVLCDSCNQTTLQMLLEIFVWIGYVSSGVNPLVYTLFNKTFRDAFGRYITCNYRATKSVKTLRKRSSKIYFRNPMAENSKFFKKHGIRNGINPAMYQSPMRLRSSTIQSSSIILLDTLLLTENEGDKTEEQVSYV

Sigma σ1 = Sigma σ1 (Homo sapiens, UniProt Q99720); test: Eurofins panel 278110; type: binding
[4] = biological target: Transporter, Norepinephrine (NET) (Homo sapiens, UniProt P23975); test: Eurofins panel 204410; type: binding
Chain of Transporter, Norepinephrine (NET) (P23975 whole entry): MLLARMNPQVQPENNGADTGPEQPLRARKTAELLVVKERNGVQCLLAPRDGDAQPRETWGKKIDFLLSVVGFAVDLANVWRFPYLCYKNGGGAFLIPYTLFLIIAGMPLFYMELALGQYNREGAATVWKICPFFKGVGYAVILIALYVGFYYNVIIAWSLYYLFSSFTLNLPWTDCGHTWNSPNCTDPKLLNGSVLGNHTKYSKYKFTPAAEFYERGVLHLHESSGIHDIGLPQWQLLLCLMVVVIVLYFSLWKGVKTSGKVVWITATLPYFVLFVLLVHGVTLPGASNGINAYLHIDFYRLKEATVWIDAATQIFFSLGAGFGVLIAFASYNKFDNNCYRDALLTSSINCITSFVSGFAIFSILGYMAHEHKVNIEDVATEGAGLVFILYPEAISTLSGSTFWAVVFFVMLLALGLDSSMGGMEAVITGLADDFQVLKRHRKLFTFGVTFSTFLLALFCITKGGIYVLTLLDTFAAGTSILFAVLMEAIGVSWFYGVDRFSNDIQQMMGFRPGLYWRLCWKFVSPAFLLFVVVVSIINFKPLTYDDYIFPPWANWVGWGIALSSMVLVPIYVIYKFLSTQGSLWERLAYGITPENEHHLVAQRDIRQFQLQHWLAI

[5] = biological target: Protein Tyrosine Kinase, LCK (Homo sapiens, UniProt P06239); test: Eurofins panel 176020; type: biochemical
[6] = biological target: Serotonin (5-Hydroxytryptamine) 5-HT2A (Homo sapiens, UniProt P28223); test: Eurofins panel 271650; type: binding

For N#CCCN [BAPN, β-aminoproprionitrile, reference compound], the “DAO specificity (Fig 2G), oxidation, individual experiments” value (shortened to “DAO specificity (Fig 2G), oxidation”) (DAO; 30) was 3.03 and 4.57 and 4.19 and 2.62 and 3.96, the “DAO specificity (Fig 2G), oxidation” value (DAO; 60) was 5.81 and 3.22 and 2.98 and 4.96 and the “DAO specificity (Fig 2G), oxidation” value (DAO; 90) was 9.3 and 4.42 and 7.32.

For NC/C=C(\F)CS(=O)(=O)c1ccccc1 [PXS-4787], the “Surgeon score dose response” value ([1]; 0.5 %) was 16 and 20 and 14, the “Surgeon score dose response” value ([1]; 3%) was 11 and 10 and 12 and 9 and the “Lox enzyme activity in scars” value ([1]; 3% cream, 24 hours after final application) was “significantly inhibited”. For the same molecule, the “scar appearance rank (0 best to 3 worst) by blinded plastic surgeons” value ([1]; 3% cream, treatment commenced at 3 weeks post-injury, analysed at 12 weeks) was “significant improvements in scar appearance”, the “LOX activity S/N” value ([1]; PXS-4787, individual samples) was 2.7 and 1.5 and 1.8 and 1.4 and 1.3 and the “profile in broad panel of macromolecular targets” value [2] was “clean”. It also gave an inhibition at 10 µM (Adenosine A2A; 10 µM) of 15%, an inhibition at 10 µM (Adrenergic α1A; 10 µM) of 1% and an inhibition at 10 µM (Adrenergic α2A; 10 µM) of 1%. It also gave an inhibition at 10 µM (Adrenergic β1; 10 µM) of -3%, an inhibition at 10 µM (Adrenergic β2; 10 µM) of 10% and an inhibition at 10 µM (Cannabinoid CB1; 10 µM) of 8%. For the same molecule, the inhibition at 10 µM (Endothelin ETA; 10 µM) was 4%, the “% Inh.” value (Glutamate, Kainate) was 16% and the “% Inh.” value (Glutamate, NMDA, Agonism; 10 µM) was 2%. For the same molecule, the inhibition at 10 µM (Histamine H1; 10 µM) was 14%, the “% Inh.” value (Imidazoline I2, Central) was -10% and the inhibition at 10 µM (Melatonin MT1) was -2%. For the same molecule, the inhibition at 10 µM (Muscarinic M3; 10 µM) was 27%, the inhibition at 10 µM (Opiate µ(OP3, MOP); 10 µM) was 3% and the “% Inh.” value (Purinergic P2X) was 8%. The inhibition at 10 µM ([3]; 10 µM) was 21%, the inhibition at 10 µM (Sigma σ1) was -10% and the inhibition at 10 µM ([4]; 10 µM) was 24%.

For NC/C=C(\F)C(F)(F)S(=O)(=O)c1ccccc1 [PXS-6302], the “DAO specificity (Fig 2G), oxidation” value (DAO; 30) was 1.03 and 0.98 and 1 and 1.08 and 0.97 and 0.99 and 1.04 and 1.01 and 1.07 and 0.91, the “DAO specificity (Fig 2G), oxidation” value (DAO; 60) was 1.17 and 1.11 and 1.01 and the “DAO specificity (Fig 2G), oxidation” value (DAO; 90) was 1.87 and 1.39 and 1.55. The “Excision injury scar scores (average score of all surgeons for each wound/tx group)” value ([1]; 3%) was 9 and 6.667 and 6 and 5.667 and 5 and 6.333 and 9.667 and 9.333, the “scar score 1–10 by blinded plastic surgeons” value ([1]; 3% cream once daily, 12 weeks) was “significantly higher scores” and the “LOX activity in scar tissue” value ([1]; 24 h after the final dose, once daily cream) was “significantly reduced”. For the same molecule, the “S/N ration LOX activity (Fig. 8A)” value ([1]; porcine scar 24 h after final daily application, individual samples) was 1.073 and 0.9572 and 1.114 and 1.845 and 1.506, the inhibition at 30 µM (Adenosine A2A; read-out: % Inh.) was -6% and the inhibition at 30 µM (Adrenergic α1A; read-out: % Inh.) was 3%. It also gave an inhibition at 30 µM (Adrenergic α2A; read-out: % Inh.) of 17%, an inhibition at 30 µM (Adrenergic β1; read-out: % Inh.) of 4% and an inhibition at 30 µM (Adrenergic β2; read-out: % Inh.) of 17%. For the same molecule, the inhibition at 30 µM (Cannabinoid CB1; read-out: % Inh.) was 4%, the inhibition at 30 µM (Endothelin ETA; read-out: % Inh.) was 7% and the “% Inh.” value (Glutamate, NMDA, Agonism; 30 µM) was -16%. The inhibition at 30 µM (Histamine H1; read-out: % Inh.) was 10%, the inhibition at 30 µM (Muscarinic M3; read-out: % Inh.) was 15% and the inhibition at 30 µM (Opiate µ(OP3, MOP); read-out: % Inh.) was 12%. The inhibition at 30 µM ([3]; read-out: % Inh.) was 63%, the inhibition at 30 µM ([4]; read-out: % Inh.) was 55% and the inhibition at 30 µM [5] was 1%. The inhibition at 30 µM [6] was 25%.
